Where a name gives a salt, the structure may show the parent alone. Read-outs that look alike come from different tables or passages of the source.
How the values were obtained:
cells with PCA = assay: Analogous thromboelastometry experiments with different direct factor Xa inhibitors plus direct thrombin inhibitor; format: cell-based; conditions: present tense
Method: (§1) Measurements were performed on a ROTEM® delta analyser (Pentapharm, Munich, Germany). ROTEM® assesses the kinetics and quality of clot formation and clot lysis in real-time. The clotting time (CT) is defined as the period of time from the start of the analysis until the start of clot formation, normally until the 2 mm amplitude is reached. The clot formation time is defined as the period until the 20 mm amplitude is reached. The alpha angle is defined as the angle between the centre line and a tangent to the curve through the 2 mm amplitude point, which is the end of the CT. The maximum amplitude of the curve is defined as the maximum clot firmness. The maximum of lysis represents the maximum fibrinolysis detected during the measurement. We focused on CT.
(§2) Briefly, after a short rest period, 300 μl of whole blood was pipetted into a cup pre-warmed at 37° C. Suspended cells were subsequently added to whole blood (5×10exp5 cells if no specification). Twenty μl of trigger reagent containing tissue factor (TF) (Innovin, Siemens, Marburg, Germany. Final dilution 1:17000/0.35 pM) diluted in Owren buffer (Siemens, Marburg, Germany) was then added to the cell-blood mixture followed by the necessary addition of 20 μl of 0.2 M CaCl2. After calcium addition, measurements started automatically. The procoagulant activity (PCA) of cells was also determined without addition of Innovin.
For modulation of PCA assays, cells were suspended in albumin 5% with or without non-fractionated heparin (Heparin Leo®, Leo). […] Dose extrapolation was based on circulating blood volume according to weight (70 ml/kg).

hALPCs = assay: Thromboelastometry (ROTEM) clotting time: modulation of procoagulant activity (PCA) of hALPCs in whole blood; format: cell-based, human; conditions: for Clotting time (CT) of whole blood with hALPCs in presence of anticoagulant drug: ROTEM, 300 μl citrated whole blood, 5×10exp5 hALPCs, added TF, heparin 10 U/mL in cell suspension, hirudin 5.7 μg/ml; for Control of hALPCs PCA by thrombin inhibitor, increased dose (2× or 5×): FIGS. 14 and 15, dose 2× or 5×
Method: as §1
as §2, with “Innovin. To ascertain the role of TF in this coagulation model, cells were pre-incubated at room temperature for 10 minutes with either 0.2 mg/mL mAb anti-human TF IgG1 (American Diagnostica) or 0.2 mg/mL mAb mouse IgG1 (clone11711.11; RnD Systems, Abingdon, United Kingdom) before extensive washing in albumin 5% and thromboelastometry assay.” for “Innovin.”
For modulation of PCA assays, cells were suspended in albumin 5% with or without non-fractionated heparin (Heparin Leo®, Leo). The following were then added to blood or plasma: rivaroxaban (Xarelto®, Bayer Schering) at a concentration of 1 μg/ml following published data (Samama et al. (2010), Thromb Haemost, 103(4):815-825), hirudin (Refludan®, Celgene Europe Limited) at a concentration of 5.7 μg/ml (clinical dose extrapolation 0.4 mg/kg), bivalirudin (Angiox®, The Medicines Company) at a concentration of 10.7 μg/ml (clinical dose extrapolation 0.75 mg/kg). Dose extrapolation was based on circulating blood volume according to weight (70 ml/kg).

hepatocytes = assay: Thromboelastometry (ROTEM): modulation of PCA of hepatocytes in whole blood; format: cell-based, human
Method: as §1
as §2, with “Innovin. […]” for “Innovin.”

citrated whole blood = assay: Thromboelastometry (ROTEM) of control blood in absence of cells with anticoagulant drug; set-up: species or system human; conditions: no cells
Method: as §1
as §2, with “Innovin. […]” for “Innovin.”

Compound: COc1ccccc1N1CCN(C(=O)CNC(=O)C(Nc2cccc(C(=N)N)c2)c2ccccc2O[C@@H]2O[C@H](CO)[C@@H](O)[C@H](O)[C@H]2O)CC1 (stereo partly shown) [MCM-09]
- Modulation of PCA of cells by concomitant use of the direct factor Xa inhibitor with a direct thrombin inhibitor (hirudin or bivalirudin) (cells with PCA): able to modulate PCA

Compound: antistasin
- Modulation of PCA of cells by concomitant use of the direct factor Xa inhibitor with a direct thrombin inhibitor (hirudin or bivalirudin) (cells with PCA): able to modulate PCA

Compound: CO[C@H]1O[C@H](COS(=O)(=O)O)[C@@H](O[C@@H]2O[C@@H](C(=O)O)[C@@H](O[C@H]3O[C@H](COS(=O)(=O)O)[C@@H](O[C@@H]4O[C@H](C(=O)O)[C@@H](O[C@H]5O[C@H](COS(=O)(=O)O)[C@@H](O)[C@H](O)[C@H]5NS(=O)(=O)O)[C@H](O)[C@H]4O)[C@H](OS(=O)(=O)O)[C@H]3NS(=O)(=O)O)[C@H](O)[C@H]2OS(=O)(=O)O)[C@H](O)[C@H]1NS(=O)(=O)O [fondaparinux, 2-deoxy-6-O-sulfo-2-(sulfoamino)-α-D-glucopyranosyl-(1→4)-O-β-D-glucopyranuronosyl-(1→4)-O-2-deoxy-3,6-di-O-sulfo-2-(sulfoamino)-α-D-glucopyranosyl-(1→4)-O-2-O-sulfo-α-L-idopyranouronosyl-(1→4)-O-methyl-2-deoxy-6-O-sulfo-2-(sulfoamino)-α-D-glucopyranoside, decasodium salt]
- Clotting time (CT) of whole blood with hALPCs in presence of anticoagulant drug (hALPCs; bivalirudin 10.7 μg/ml): 209.7 ± 149.7 s

Compound: hirudin
- Control of hALPCs PCA by thrombin inhibitor, increased dose (2× or 5×) (hALPCs; ROTEM whole blood): only a partial control
- Clotting time (CT) of whole blood with hALPCs in presence of anticoagulant drug (hALPCs; bivalirudin 10.7 μg/ml): 256.3 ± 11.8 s
- Control of hepatocytes PCA (in words) (hepatocytes): controlled
- Coagulation of blood in absence of cells (in words) (citrated whole blood; thromboelastometry stopped after 1800 sec): no measurable coagulation was observed

Compound: O=C1CN(S(=O)(=O)/C=C/c2ccc(Cl)s2)CCN1Cc1cc2cnccc2[nH]1 [RPR-209685]
- Modulation of PCA of cells by concomitant use of the direct factor Xa inhibitor with a direct thrombin inhibitor (hirudin or bivalirudin) (cells with PCA): able to modulate PCA

Compound: O=C(NC[C@H]1CN(c2ccc(N3CCOCC3=O)cc2)C(=O)O1)c1ccc(Cl)s1 [rivaroxaban, (S)-5-chloro-N-{[2-oxo-3-[4-(3-oxomorpholin-4-yl)phenyl]oxazolidin-5-yl]methyl}thiophene-2-carboxamide]
- Modulation of hALPCs PCA (in words) (hALPCs; ROTEM whole blood, rivaroxaban 1 μg/ml, bivalirudin 10.7 μg/ml, heparin 10 U/mL): ineffective

Compound: COc1ccc(NC(=O)c2ccc(C(=N)N(C)C)cc2)c(C(=O)Nc2ccc(Cl)cn2)c1 [betrixaban, N-(5-chloropyridin-2-yl)-2-([4-(N,N-dimethylcarbamimidoyl)benzoyl]amino)-5-methoxybenzamide]
- Modulation of PCA of cells by concomitant use of the direct factor Xa inhibitor with a direct thrombin inhibitor (hirudin or bivalirudin) (cells with PCA): able to modulate PCA

Compound: CO[C@H]1C[C@@H](C(=O)Nc2ccc(-n3ccccc3=O)cc2F)N(C(=O)Nc2ccc(Cl)cc2)C1 [eribaxaban]
- Modulation of PCA of cells by concomitant use of the direct factor Xa inhibitor with a direct thrombin inhibitor (hirudin or bivalirudin) (cells with PCA): able to modulate PCA

Compound: CN1CCC(N2CCN(C(=O)[C@H](NC(=O)c3ccc4cc[nH]c4c3)c3ccccc3)CC2)CC1 [LY517717]
- Modulation of PCA of cells by concomitant use of the direct factor Xa inhibitor with a direct thrombin inhibitor (hirudin or bivalirudin) (cells with PCA): able to modulate PCA

Compound: CC(=N)N1CCC(c2ccc(NC(=O)CN(Cc3cccc(OCC(=O)O)c3)c3cccc(C(=N)N)c3)cc2)CC1 [KFA-144]
- Modulation of PCA of cells by concomitant use of the direct factor Xa inhibitor with a direct thrombin inhibitor (hirudin or bivalirudin) (cells with PCA): able to modulate PCA

Compound: COc1ccc(C(=O)Nc2cccc(O)c2NC(=O)c2ccc(N3CCCN(C)CC3)cc2)cc1 [darexaban]
- Modulation of PCA of cells by concomitant use of the direct factor Xa inhibitor with a direct thrombin inhibitor (hirudin or bivalirudin) (cells with PCA): able to modulate PCA

Compound: CC(=N)N1CC[C@H](Oc2ccc([C@H](Cc3ccc4ccc(C(=N)N)cc4c3)C(=O)O)cc2)C1 [DX9065a]
- Modulation of PCA of cells by concomitant use of the direct factor Xa inhibitor with a direct thrombin inhibitor (hirudin or bivalirudin) (cells with PCA): able to modulate PCA

Compound: bivalirudin
- Control of hALPCs PCA by thrombin inhibitor, increased dose (2× or 5×) (hALPCs; ROTEM whole blood): only a partial control
- Clotting time (CT) of whole blood with hALPCs in presence of anticoagulant drug (hALPCs; bivalirudin 10.7 μg/ml): 380.8 ± 114.7 s
- Control of hepatocytes PCA (in words) (hepatocytes; ROTEM whole blood, FIG. 6D): controlled
- CT of control blood (in absence of cells) (citrated whole blood; bivalirudin 10.7 μg/ml, unit not printed at the place (other CT in sec)): 1075.0±107.2

Compound: CN(C)Cc1nccn1-c1ccc(NC(=O)c2cc(C(F)(F)F)nn2-c2ccc3onc(N)c3c2)c(F)c1 [razaxaban]
- Modulation of PCA of cells by concomitant use of the direct factor Xa inhibitor with a direct thrombin inhibitor (hirudin or bivalirudin) (cells with PCA): able to modulate PCA

Compound: N=C(N)N1CCc2ccc(OCC3(C(=O)O)CCN(c4ccncc4)CC3)cc2C1 [JTV-803]
- Modulation of PCA of cells by concomitant use of the direct factor Xa inhibitor with a direct thrombin inhibitor (hirudin or bivalirudin) (cells with PCA): able to modulate PCA

Compound: O=C([C@H](O)CS(=O)(=O)c1ccc2cc(Cl)ccc2c1)N1CCC(N2CCCNC2=O)CC1 [letaxaban]
- Modulation of PCA of cells by concomitant use of the direct factor Xa inhibitor with a direct thrombin inhibitor (hirudin or bivalirudin) (cells with PCA): able to modulate PCA

Compound: COc1ccc(-n2nc(C(N)=O)c3c2C(=O)N(c2ccc(N4CCCCC4=O)cc2)CC3)cc1 [apixaban, 1-(4-methoxyphenyl)-7-oxo-6-[4-(2-oxopiperidin-1-yl)phenyl]-4,5-dihydropyrazolo[5,4-c]pyridine-3-carboxamide]
- Modulation of PCA of cells by concomitant use of the direct factor Xa inhibitor with a direct thrombin inhibitor (hirudin or bivalirudin) (cells with PCA): able to modulate PCA

Compound: C[C@@H](C(=O)N1CCOCC1)N1CC[C@H](NS(=O)(=O)/C=C/c2ccc(Cl)s2)C1=O [GW813893]
- Modulation of PCA of cells by concomitant use of the direct factor Xa inhibitor with a direct thrombin inhibitor (hirudin or bivalirudin) (cells with PCA): able to modulate PCA

Compound: CC(=N)N1CCC(Oc2ccc(N(Cc3ccc4ccc(C(=N)N)cc4c3)S(=O)(=O)CC(=O)O)cc2)CC1 [YM-60828]
- Modulation of PCA of cells by concomitant use of the direct factor Xa inhibitor with a direct thrombin inhibitor (hirudin or bivalirudin) (cells with PCA): able to modulate PCA
